Test results as given in patent US20250319073A1, “COMPOSITIONS AND METHODS FOR THE TREATMENT OF HUNTINGTON’S DISEASE AND HTT PROTEINOPATHIES” (priority 2022, published 2025).

Legend:
R6/2 mice = test: 18F-FDG PET brain glucose uptake in R6/2 mice; assay type: in vivo, mouse
Experimental: Study Summary—A total of 46 male R6/2 mice and 15 male wild-type littermate control mice (WT) were used in the study. The mice were genotyped and the R6/2 mice were divided into different treatment groups based on their pre-treatment body weight. The treatment with Compound (Ia) (0.5 or 5 mg/kg; 10 ml/kg, intraperitoneally (i.p.), QD) or Vehicle (10 ml/kg, i.p., QD) was started at 4 weeks of age. Body weights were measured before the treatment onset and continued twice a week until the end of the study. Fine motor kinematic analysis and rotarod test were performed at 10 weeks of age and the open field activity and clasping behavior were measured at 12 weeks of age for all mice. At 8 and 12 weeks of age the glucose uptake was measured by ^18F-FDG PET and the striatal metabolites were measured using MR spectroscopy for 9-10 mice per group. At 13 weeks of age 9-10 mice per group were subjected to tissue sample collection, and the brain and blood samples were collected. The blood samples were used to prepare peripheral blood mononuclear cells (PBMCs) on which the flow cytometry/luminescence analysis was performed for following assays: mitochondrial reactive oxygen species (ROS) (MitoSox), and ATP levels (Cell TiterGlow).
^18F-FDG-PET Analysis—At 8 and 12 weeks of age, 9 mice per group were fasted overnight (water allowed ad libitum) to standardize the blood glucose level. […]

[1] = tested on: Peripheral Blood Mononuclear Cells (PBMC); test: MitoSOX mitochondrial ROS assay (flow cytometry) in PBMCs of treated mice; assay type: in vivo, mouse; details: R6/2 mice, 0.5 mg/kg / 5 mg/kg i.p. QD, PBMCs collected at 13 weeks of age
Experimental: Euthanasia & Sample Collection—At 13 weeks of age, 9 mice per group were euthanized by deep anesthesia with sodium pentobarbital (180 mg/kg). The remaining mice were euthanized and any samples were not collected, except the tail and ear samples. A terminal blood sample (as much as possible) was collected by cardiac puncture into a syringe. The whole blood was placed in Li-Hep tube at RT and used immediately for preparation of PBMCs. The whole brain was collected and fresh frozen in liquid nitrogen and stored at −80° C. Blood was collected also from extra animals as staining controls for the flow cytometry assays (n=3 extra animals per day). Tail and ear samples were collected for possible post-study re-genotype analysis. […] Right before measurement 1 μL of propidium iodide was added and the cell number and viability was determined by MACSquant Analyzer 10 flow cytometer. […] The cells were analyzed immediately after the staining using the MACSQuant Analyzer 10 (Miltenyi Biotec) and Cytation 3 (Cell titerglow). […] Oxidation of MitoSOX™ Red reagent by superoxide produces red fluorescence and can be used to reliably the relative differences in mitochondrial ROS formation in cells. […] Concentrations exceeding 5 μM can produce cytotoxic effects, including altered mitochondrial morphology and redistribution of fluorescence to nuclei and the cytosol. • 2. […]

Cc1cc(O)cc(C)c1C[C@H](NC(=O)[C@H](N)CCCNC(=N)N)C(=O)N[C@@H](CCCCN)c1nc(Cc2ccccc2)no1.Cl.Cl [Compound (Ia), (R)-2-amino-N—((S)-1-(((S)-5-amino-1-(3-benzyl-1,2,4-oxadiazol-5-yl)pentyl)amino)-3-(4-hydroxy-2,6-dimethylphenyl)-1-oxopropan-2-yl)-5-guanidinopentanamide]
18F-FDG uptake (radioactivity) in olfactory bulb compared to vehicle treated R6/2 mice (R6/2 mice; 5 mg/kg i.p. QD, 12 weeks of age, p<0.05, Mixed-effects model (REML)): statistically significantly higher radioactivity | 18F-FDG uptake in various brain areas (R6/2 mice; i.p. QD, trend, not statistically significant except olfactory bulb): increased | mitochondrial ROS formation (MitoSOX) in PBMCs, R6/2+Vehicle vs treated R6/2 [1]: no significant differences
